Among the data in patent publication US8377980B2, “Hepatitis C virus inhibitors” (Bristol-Myers Squibb Company, priority 2009, dated 2013) are EC50 values, retold here.

For one assay, the system named is HCV 1b genotype. Kind of assay: HCV Replicon assay (HCV 1b genotype). The class given is cell-based. The following applies: Hepatitis C virus; HCV 1b genotype replicon; Effective 50% inhibitory concentration; read-out: EC50. How it is done:
An HCV Replicon assay was utilized in the present disclosure, and was prepared, conducted and validated as described in commonly owned PCT/US2006/022197 and in O'Boyle et al., Antimicrob. Agents Chemother., 49(4):1346-1353 (April 2005). Assay methods incorporating luciferase reporters have also been used as described (Apath.com).
HCV-neo replicon cells and replicon cells containing resistance substitutions in the NS5A region were used to test the currently described family of compounds. The compounds were determined to have differing degrees of reduced inhibitory activity on cells containing mutations vs. the corresponding inhibitory potency against wild-type cells. Thus, the compounds of the present disclosure can be effective in inhibiting the function of the HCV NS5A protein and are understood to be as effective in combinations as previously described in application PCT/US2006/022197 and commonly owned WO 04/014852. It should be understood that the compounds of the present disclosure can inhibit multiple genotypes of HCV. […] In one embodiment, compounds of the present disclosure are inhibitory versus 1a, 1b, 2a, 2b, 3a, 4a, and 5a genotypes. EC50 values against HCV 1b are as follows.
On the technique in general: Replicon systems follow genome replication, usually without infectious particles.
For orientation: EC50 means the concentration giving half of the maximal effect. In the case of `CC[C@H](NC(=O)OC)C(=O)N1[C@@H]2C[C@@H]2C[C@H]1c1nc(Cl)c(-c2ccc(-c3ccc(-c4[nH]c([C@@H]5C[C@H]6C[C@H]6N5C(=O)[C@@H](NC(=O)OC)C5CCOCC5)nc4Cl)cc3)cc2)[nH]1` [Example V9], the EC50 came out at 2.7 pM.
Same read-out and setting: as for `COC(=O)NC(C(=O)N1[C@@H]2C[C@@H]2C[C@H]1c1nc(-c2ccc(-c3ccc(-c4c[nH]c([C@@H]5C[C@H]6C[C@H]6N5C(=O)[C@@H](NC(=O)OC)[C@H]5CCCOC5)n4)cc3)cc2)c(Cl)[nH]1)[C@H]1CCCOC1` (stereo partly drawn) [ZY6], the figure is 10.8 pM.

Staying with this assay, now noted: Hepatitis C virus; HCV 1b genotype replicon; range class; read-out: EC50-Range.
On to `CC[C@H](NC(=O)OC)C(=O)N1[C@@H]2C[C@@H]2C[C@H]1c1ncc(-c2ccc(-c3ccc(-c4[nH]c([C@@H]5C[C@H]6C[C@H]6N5C(=O)[C@H](CC)NC(=O)OC)nc4Cl)cc3)cc2)[nH]1` [Example V1], for which the EC50 was 1 to 10 pM.
With `COC(=O)NC(C(=O)N1[C@@H]2C[C@@H]2C[C@H]1c1nc(-c2ccc(-c3ccc(-c4[nH]c([C@@H]5C[C@H]6C[C@H]6N5C(=O)C(NC(=O)OC)[C@H]5C[C@@H](C)O[C@@H](C)C5)nc4Cl)cc3)cc2)c[nH]1)[C@H]1C[C@@H](C)O[C@@H](C)C1` (stereo partly drawn) [OL6], the EC50 lay within 1 to 10 pM.
Same read-out and setting: then `COC(=O)N[C@H](C(=O)N1[C@@H](C)CC[C@H]1c1nc(-c2ccc(-c3ccc4c(ccc5[nH]c([C@@H]6CC[C@H](C)N6C(=O)[C@@H](NC(=O)OC)C6CCOCC6)nc54)c3)cc2)c(Cl)[nH]1)C1CCOCC1` [JLR-5], with 1 to 10 pM; and `CC[C@H](NC(=O)OC)C(=O)N1[C@@H]2C[C@@H]2C[C@H]1c1nc(Cl)c(-c2ccc(-c3ccc(-c4[nH]c([C@@H]5C[C@H]6C[C@H]6N5C(=O)[C@@H](NC(=O)OC)C5CCOCC5)nc4Cl)cc3)cc2)[nH]1` [Example V9], with 1 to 10 pM; and `COC(=O)N[C@H](C(=O)N1[C@@H](C)CC[C@H]1c1nc(-c2ccc(-c3ccc(-c4nc([C@@H]5CC[C@H](C)N5C(=O)[C@@H](NC(=O)OC)C5CCOCC5)[nH]c4F)cc3)cc2)c(F)[nH]1)C1CCOCC1` [DSTL-10], with 1 to 10 pM.
On to `COC(=O)N[C@@H](C(=O)N1[C@@H]2C[C@@H]2C[C@H]1c1nc(-c2ccc(-c3ccc(-c4nc([C@@H]5C[C@H]6C[C@H]6N5C(=O)[C@H](NC(=O)OC)[C@@H]5CCCOC5)[nH]c4Cl)cc3)cc2)c(Cl)[nH]1)[C@@H]1CCCOC1` [ZY4, dimethyl(S,1R,1′R)-2,2′-((1R,1′R,3S,3′S,5R,5′R)-3,3′-(4,4′-(biphenyl-4,4′-diyl)bis(5-chloro-1H-imidazole-4,2-diyl))bis(2-azabicyclo[3.1.0]hexane-3,2-diyl))bis(2-oxo-1-((S)-tetrahydro-2H-pyran-3-yl)ethane-2,1-diyl)dicarbamate], for which the EC50 lay in the range of 1 to 10 pM.
Regarding `COC(=O)N[C@H](C(=O)N1CCC[C@H]1c1nc(-c2ccc(-c3ccc(-c4nc([C@@H]5CCCN5C(=O)[C@@H](NC(=O)OC)C(C)C)[nH]c4Br)cc3)cc2)c[nH]1)C(C)C` [JLR-1], the EC50 lay in the range of 1 to 10 pM.
The same measure, in the same setting: as for `COC(=O)N[C@H](C(=O)N1[C@@H]2C[C@@H]2C[C@H]1c1nc(-c2ccc(-c3ccc4c(ccc5[nH]c([C@@H]6C[C@H]7C[C@H]7N6C(=O)[C@@H](NC(=O)OC)C6CCOCC6)nc54)c3)cc2)c(Cl)[nH]1)C1CCOCC1` [DSTL-2], the figure is 10 to 100 pM; as for `COC(=O)N[C@H](C(=O)N1[C@@H]2C[C@@H]2C[C@H]1c1nc(-c2ccc(-c3ccc(-c4nc([C@@H]5C[C@H]6C[C@H]6N5C(=O)[C@@H](NC(=O)OC)C5CCOCC5)[nH]c4F)cc3)cc2)c[nH]1)C1CCOCC1` [DSTL-6], 1 to 10 pM; as for `COC(=O)N[C@H](C(=O)N1[C@@H](C)CC[C@H]1c1ncc(-c2ccc(-c3ccc(-c4[nH]c([C@@H]5CC[C@H](C)N5C(=O)[C@@H](NC(=O)OC)C(C)C)nc4Cl)cc3)cc2)[nH]1)C(C)C` [GW2], 1 to 10 pM.
For the compound `COC(=O)N[C@H](C(=O)N1C[C@@H](C)C[C@H]1c1ncc(-c2ccc(-c3ccc(-c4[nH]c([C@@H]5C[C@H](C)CN5C(=O)[C@@H](NC(=O)OC)C5CCOCC5)nc4Cl)cc3)cc2)[nH]1)C1CCOCC1` [GW4], the EC50 was in the range of 10 to 100 pM.
Consider `COC(=O)N[C@H](C(=O)N1C2C[C@@H]2C[C@H]1c1nc(-c2ccc(-c3ccc(-c4nc([C@@H]5CC6C[C@H]6N5C(=O)[C@@H](NC(=O)OC)C5CCOCC5)[nH]c4C#N)cc3)cc2)c[nH]1)C1CCOCC1` (stereo partly drawn) [DSTL-12], for which the EC50 was 10 to 100 pM.
The same measure, in the same setting: then `COC(=O)NC(C(=O)N1[C@@H]2C[C@@H]2C[C@H]1c1nc(-c2ccc(-c3ccc(-c4nc([C@@H]5C[C@H]6C[C@H]6N5C(=O)[C@H](NC(=O)OC)[C@H]5CCCOC5)[nH]c4Cl)cc3)cc2)c(Cl)[nH]1)[C@@H]1CCCOC1` (stereo partly drawn) [ZY3, dimethyl(R,1R,1′R)-2,2′-((1R,1′R,3S,3′S,5R,5′R)-3,3′-(4,4′-(biphenyl-4,4′-diyl)bis(5-chloro-1H-imidazole-4,2-diyl))bis(2-azabicyclo[3.1.0]hexane-3,2-diyl))bis(2-oxo-1-((R)-tetrahydro-2H-pyran-3-yl)ethane-2,1-diyl)dicarbamate], with 1 to 10 pM; and `COC(=O)N[C@H](C(=O)N1CCC[C@H]1c1ncc(-c2ccc(-c3ccc(-c4[nH]c([C@@H]5CCCN5C(=O)[C@@H](NC(=O)OC)C(C)C)nc4-c4ccnn4C)cc3)cc2)[nH]1)C(C)C` [OL19], with 10 to 100 pM; and `COCC[C@H](NC(=O)OC)C(=O)N1[C@@H]2C[C@@H]2C[C@H]1c1nc(-c2ccc(-c3ccc(-c4nc([C@@H]5C[C@H]6C[C@H]6N5C(=O)[C@H](CCOC)NC(=O)OC)[nH]c4Cl)cc3)cc2)c[nH]1` [ZY8], with 1 to 10 pM.
Regarding `COCC[C@H](NC(=O)OC)C(=O)N1[C@@H]2C[C@@H]2C[C@H]1c1nc(-c2ccc(-c3ccc(-c4nc([C@@H]5C[C@H]6C[C@H]6N5C(=O)[C@H](CCOC)NC(=O)OC)[nH]c4Cl)cc3)cc2)c(Cl)[nH]1` [ZY7, dimethyl (2S,2′S)-1,1′-((1R,1′R,3S,3′S,5R,5′R)-3,3′-(4,4′-(biphenyl-4,4′-diyl)bis(5-chloro-1H-imidazole-4,2-diyl))bis(2-azabicyclo[3.1.0]hexane-3,2-diyl))bis(4-methoxy-1-oxobutane-2,1-diyl)dicarbamate], the EC50 lay within 1 to 10 pM.
Still for that read-out and setting: as for `COC(=O)N[C@H](C(=O)N1[C@@H]2C[C@@H]2C[C@H]1c1nc(-c2ccc(-c3ccc(-c4nc([C@@H]5C[C@H]6C[C@H]6N5C(=O)[C@@H](NC(=O)OC)[C@H]5CCCOC5)[nH]c4Cl)cc3)cc2)c(Cl)[nH]1)[C@H]1CCCOC1` [ZY2, dimethyl(R,1S,1′S)-2,2′-((1R,1′R,3S,3′S,5R,5′R)-3,3′-(4,4′-(biphenyl-4,4′-diyl)bis(5-chloro-1H-imidazole-4,2-diyl))bis(2-azabicyclo[3.1.0]hexane-3,2-diyl))bis(2-oxo-1-((R)-tetrahydro-2H-pyran-3-yl)ethane-2,1-diyl)dicarbamate], the figure is 1 to 10 pM.
As to `COC(=O)N[C@H](C(=O)N1C[C@@H](C)C[C@H]1c1nc(Cl)c(-c2ccc(-c3ccc(-c4[nH]c([C@@H]5C[C@H](C)CN5C(=O)[C@@H](NC(=O)OC)C(C)C)nc4Cl)cc3)cc2)[nH]1)C(C)C` [GW8], the EC50 lay within 1 to 10 pM.
On the same count and under the same terms, as for `COC(=O)N[C@H](C(=O)N1CCC[C@H]1c1nc(-c2ccc(-c3ccc(-c4nc([C@@H]5CCCN5C(=O)[C@@H](NC(=O)OC)C(C)C)[nH]c4I)cc3)cc2)c[nH]1)C(C)C` [JLR-2], the figure is 1 to 10 pM; as for `C=CCc1nc([C@@H]2CCCN2C(=O)[C@@H](NC(=O)OC)C(C)C)[nH]c1-c1ccc(-c2ccc(-c3cnc([C@@H]4CCCN4C(=O)[C@@H](NC(=O)OC)C(C)C)[nH]3)cc2)cc1` [OL15], 1 to 10 pM; as for `CC[C@H](NC(=O)OC)C(=O)N1[C@@H]2C[C@@H]2C[C@H]1c1nc(Cl)c(-c2ccc(-c3ccc(-c4[nH]c([C@@H]5C[C@H]6C[C@H]6N5C(=O)[C@H](CC)NC(=O)OC)nc4Cl)cc3)cc2)[nH]1` [Example V3], 1 to 10 pM.
Consider `COC(=O)N[C@H](C(=O)N1CCC[C@H]1c1ncc(-c2ccc(-c3ccc(-c4[nH]c([C@@H]5CCCN5C(=O)[C@@H](NC(=O)OC)C(C)C)nc4C4CC4)cc3)cc2)[nH]1)C(C)C` [OL7], for which the EC50 was 1 to 10 pM.
Regarding `COC(=O)NC(C(=O)N1[C@@H]2C[C@@H]2C[C@H]1c1nc(-c2ccc(-c3ccc(-c4c[nH]c([C@@H]5C[C@H]6C[C@H]6N5C(=O)[C@@H](NC(=O)OC)[C@H]5CCCOC5)n4)cc3)cc2)c(Cl)[nH]1)[C@H]1CCCOC1` (stereo partly drawn) [ZY6], the EC50 lay in the range of 10 to 100 pM.
The same measure, in the same setting: then `COC(=O)N[C@H](C(=O)N1[C@@H](C)CC[C@H]1c1nc(-c2ccc(-c3ccc(-c4nc([C@@H]5CC[C@H](C)N5C(=O)[C@@H](NC(=O)OC)C5CCOCC5)[nH]c4F)cc3)cc2)c[nH]1)C1CCOCC1` [DSTL-9], with 1 to 10 pM; and `COC(=O)N[C@H](C(=O)N1[C@@H]2C[C@@H]2C[C@H]1c1nc(-c2ccc(-c3ccc(-c4nc([C@@H]5C[C@H]6C[C@H]6N5C(=O)[C@@H](NC(=O)OC)[C@@H]5CCCOC5)[nH]c4Cl)cc3)cc2)c(Cl)[nH]1)[C@@H]1CCCOC1` [ZY1, dimethyl(S,1S,1′S)-2,2′-((1R,1′R,3S,3′S,5R,5′R)-3,3′-(4,4′-(biphenyl-4,4′-diyl)bis(5-chloro-1H-imidazole-4,2-diyl))bis(2-azabicyclo[3.1.0]hexane-3,2-diyl))bis(2-oxo-1-((S)-tetrahydro-2H-pyran-3-yl)ethane-2,1-diyl)dicarbamate], with 1 to 10 pM; and `COC(=O)N[C@@H](C(=O)N1[C@@H]2C[C@@H]2C[C@H]1c1nc(-c2ccc(-c3ccc(-c4nc([C@@H]5C[C@H]6C[C@H]6N5C(=O)[C@H](NC(=O)OC)[C@@H]5CCCOC5)[nH]c4Cl)cc3)cc2)c[nH]1)[C@H]1CCCOC1` [ZY5], with 1 to 10 pM.
Still for that read-out and setting: as for `COC(=O)N[C@H](C(=O)N1[C@@H]2C[C@@H]2C[C@H]1c1nc(-c2ccc(-c3ccc(-c4nc([C@@H]5C[C@H]6C[C@H]6N5C(=O)[C@@H](NC(=O)OC)C5CCOCC5)[nH]c4F)cc3)cc2)c(F)[nH]1)C1CCOCC1` [DSTL-7], the figure is 1 to 10 pM.
`COC(=O)N[C@H](C(=O)N1C[C@@H](C)C[C@H]1c1ncc(-c2ccc(-c3ccc(-c4[nH]c([C@@H]5C[C@H](C)CN5C(=O)[C@@H](NC(=O)OC)C(C)C)nc4Cl)cc3)cc2)[nH]1)C(C)C` [GW3]: the EC50 lay within 1 to 10 pM.
